Data: patent publication US6719969B1, “Treatment of liver disease and injury with CXC chemokines” (The Regents of The University of Michigan, priority 1999, dated 2004)
Values joined by “and” are separate entries in the source; they are usually repeats but may differ in a detail not shown here. Equal values may be shown once. Read-outs that look alike come from different tables or passages of the source.

Columns and labels:
[1] = system: normal murine liver cells (ATCC CRL-1638; NmuLi); experiment: Cultured liver cell proliferation after acetaminophen, [3H]thymidine incorporation; format: cell-based, mouse; conditions: for Proliferation of liver cells exposed to acetaminophen for 24 h: 2.5 mg/ml acetaminophen; for Proliferation of liver cells exposed to PBS: NAC 1 mM, cytokines 1 ng/ml, no acetaminophen
Experimental: The effects of chemokines, NAC and HGF on hepatocyte proliferation after a 24 h acetaminophen challenge were examined using normal murine liver cells obtained from American Type Culture Collection (ATCC CRL-1638; NmuLi). Hepatocytes were plated at a density of 1.0×10^5 cells/well in 6-well tissue culture plates, and were deprived of fetal bovine serum supplementation for 36 h prior to an study. Fasted hepatocytes were subsequently exposed to 2.5 mg/ml of acetaminophen and were left untreated or treated with one of NAC, MIP-2, ENA-78, IL-8, IP-10 or HGF. NAC at 1 mM or individual cytokines at 1 ng/ml were added either immediately or 10 h after the addition of acetaminophen.
In additional in vitro studies, normal serum or anti-CXCR2 antibody was also included in cultures of treated or untreated hepatocytes exposed to PBS or acetaminophen. Ten μCi of [^3H]thymidine was added to each well for the final 4 h of culture, and 24 h after the addition of acetaminophen suspensions of hepatocytes were prepared via cell lysis with 0.5% (v/v) Triton-X100. [^3H]thymidine incorporation was assessed by liquid scintillation counting on a Beckman counter (Beckman Instruments, Fullerton, Calif.).

[2] = system: CD1 mice challenged with 400 mg/kg acetaminophen; experiment: Acetaminophen-induced hepatic injury, mice fasted 12 h, treatment immediately or 10 h after challenge; format: in vivo, mouse; conditions: for Liver injury (histology): treatment 10 h after acetaminophen, liver at 48 h; for Significant reduction of serum AST levels / Reduction of serum AST levels: AST at 48 h; for Reduction of serum AST levels: NAC 100 ug, proteins 2 ug i.v.
Experimental: Female CD1 mice (6-8 wk of age) were purchased from Charles River Laboratories (Portage, Mich.) and maintained under specific pathogen-free conditions with free access to water and food prior to each study. Fresh suspensions of acetaminophen (Sigma Chemical Company, St. Louis, Mo.) were made daily by dissolving the compound in phosphate buffered saline (PBS) warmed to 40° C. In all studies, mice were allowed free access to water alone prior to an i.p. injection of 400 mg/kg acetaminophen (Manatou et al., 1996; incorporated herein by reference).
Protocol 2: In the second set of studies, mice were fasted for 12 h and received one of NAC, murine MIP-2, the human proteins ENA-78, IL-8, HGF or IP-10 either immediately or 10 h after acetaminophen challenge. […] Mice were injected i.v. with 100 μg of NAC or 2 μg of recombinant protein (ENA-78, IL-8, HGF or IP-10) dissolved in 0.5 ml of normal saline. All mice were subsequently sacrificed 48 h after acetaminophen challenge and serum and liver samples were removed.
Acute hepatocellular injury results in elevated levels of aspartate aminotransferase (AST). Serum levels of AST were determined 48 h after mice were challenged with acetaminophen by Clinical Pathology at the University of Michigan Medical School (Ann Arbor, Mich.) using standardized techniques.
For histological assessment of hepatic injury, liver tissues were fixed in 4% paraformaldehyde for 24 h prior to routine histological processing. A pathologist assessed hematoxylin and eosin stained slides from acetaminophen-challenged mice in a blinded manner. Separate scoring systems were devised to indicate the area of liver necrosis and hemorrhage, and the extent of hepatic inflammation. Detailed histological grading of hepatic injury including area of liver necrosis and hemorrhage was determined at 48 h after acetaminophen challenge. Hepatic inflammation was graded as absent, slight, moderate, or prominent.
The histological appearances of the livers from normal mice and mice that were challenged with acetaminophen and received saline or 2 μg of murine MIP-2, human ENA-78, human IL-8, human IP-10, human HGF or 100 μg of NAC were also analyzed. Mice were fasted for 12 h prior to i.p. injection with 400 mg/kg of acetaminophen, and then allowed free access to food. In these studies, saline, chemokines or NAC were given by i.v. injection 10 h after acetaminophen challenge, and liver was removed from each mouse for histological examination at the 48 h time point after acetaminophen.

[3] = system: CD1 mice challenged with 400 mg/kg acetaminophen; experiment: Acetaminophen challenge in mice fasted 24 h, MIP-2 or NAC treatment; format: in vivo, mouse
Experimental: Protocol 3: In the next set of studies, mice were fasted for 24 h and received MIP-2 (2 μg) or NAC (100 μg) via an i.v. injection either immediately or 10 h after acetaminophen challenge, and liver and serum samples were removed from surviving mice 48 h after acetaminophen challenge. Liver and serum samples from the experimental groups and from mice challenged with an i.p. injection of PBS and treated i.v. with normal saline were processed as described below.
The histological appearances of the livers from mice that were challenged with acetaminophen and received 100 μg of NAC or 2 μg of murine MIP-2 by i.v. injection, either immediately after or 10 h later, were also analyzed.

[4] = system: CD-1 mice challenged with 400 mg/kg acetaminophen
primary rat hepatocytes [5] = system: primary rat hepatocytes
Experimental: (§1) Adult male pathogen-free Sprague Dawley rats (Charles River, Portage, Mich.) weighing 300-350 gms. were used for isolation of hepatocytes by collagenase perfusion (Berry and Friend, 1969; Alpini et al., 1994; each incorporated herein by reference). Perfusion was performed via the portal vein after anesthesia was induced with intramuscular ketamine (100 mg/kg) and maintained with inhalation of methoxyflurane. […] The portal vein was then exposed and cannulated with a 16 gauge angiocatheter.
(§2) The liver was perfused with Hank's solution (calcium and magnesium free with 10 mM Hepes and 10^5 U/L of penicillin/streptomycin, pH 7.4 [Biowhittaker, Walkersville, Md.]) at 37° C. at a rate of 10 ml/min to flush the liver of intravascular blood. The liver was next perfused with a collagenase solution (0.5 mg/ml collagenase B [Boehringer Mannheim, Indianapolis, Ind.] in Dulbecco's Modified Eagle's Media/F12 [DMEM/F12 {Biowhittaker, Walkersville, Md.}] with 10^5 U/L penicillin/streptomycin) at 37° C. at a rate of 10 ml/min until there was evidence of tissue fracture beneath the liver capsule.
(§3) The liver was then gently removed from the animal, placed into a sterile petri dish containing additional collagenase solution, the liver capsule removed, and the tissue gently agitated to disperse the cells. […] Hepatocyte viability was generally 85-95% as determined by trypan blue exclusion. […]

murine CXCR2 = molecular target: T1, murine CXCR2 (Mus musculus, UniProt P35343); conditions: Lee et al., 1995; cited from earlier work
T1 sequence (P35343 1-359): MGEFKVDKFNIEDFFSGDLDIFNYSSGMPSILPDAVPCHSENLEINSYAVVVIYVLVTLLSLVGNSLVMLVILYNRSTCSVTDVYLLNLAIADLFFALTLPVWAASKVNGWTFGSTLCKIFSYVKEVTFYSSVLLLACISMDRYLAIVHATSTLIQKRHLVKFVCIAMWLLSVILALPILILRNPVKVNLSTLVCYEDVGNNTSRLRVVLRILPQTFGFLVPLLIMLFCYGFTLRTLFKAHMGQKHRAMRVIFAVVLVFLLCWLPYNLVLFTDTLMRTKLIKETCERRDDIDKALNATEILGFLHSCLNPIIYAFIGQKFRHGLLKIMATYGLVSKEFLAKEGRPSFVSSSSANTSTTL

primary rat hepatocytes [6] = experiment: Primary rat hepatocyte proliferation in vitro, 3H-thymidine incorporation; conditions: 0.001-100 ng/ml, 24 h of incubation, vs media alone
Experimental: as §1, §2, §3

[7] = system: CD-1 mice challenged with 400 mg/kg acetaminophen; experiment: Delayed MIP-2 therapy in acetaminophen-challenged mice: histology, BrdU, nuclear Western blot; format: in vivo, mouse
neutrophils = conditions: ELR motif introduced into PF-4; cited from earlier work
[8] = treatment delayed 10 h after acetaminophen
[9] = treatment immediately after acetaminophen
[10] = 24 h fast, treatment delayed 10 h
[11] = CD1 mice fasted 24 h, 400 mg/kg acetaminophen, 400 mg/kg

CC(=O)N[C@@H](CS)C(=O)O [NAC, N-acetyl-cysteine]
Proliferation of liver cells exposed to acetaminophen for 24 h ([1]; treatment added 10 h later, vs PBS cultures): significantly reduced liver cell proliferation | Proliferation of liver cells exposed to acetaminophen for 24 h ([1]; treatment added immediately): maintained the proliferation | Proliferation of liver cells exposed to PBS [1]: did not alter the proliferation | Liver injury (histology) [2]: Neither HGF nor 100 μg of NAC were effective | Significant reduction of serum AST levels [2, 8]: no longer able to significantly reduced serum AST levels | Reduction of serum AST levels [2, 9]: approximately 90% | Liver histology [3, 10]: did not attenuate hepatic injury | Liver histology ([3]; 24 h fast, treatment immediately after acetaminophen): effective | Serum AST, NAC vs MIP-2 ([3]; 24 h fast, treatment immediately after acetaminophen, 48 h): significantly lower levels of serum AST | Percent survival, treatment Immediately After Acetaminophen ([3]; CD1 mice fasted 24 h, 400 mg/kg acetaminophen, monitored 48 h, 400 mg/kg): 90% | Percent survival, treatment 10 h post Acetaminophen [3, 11]: 25% and 20%

IP-10: non-ELR CXC chemokine, γ-interferon-inducible protein-10
Hepatic injury (histology) ([4]; 1 ug i.v. 10 h after acetaminophen, 2 days after challenge): dramatically decreased hepatic injury | Decrease in liver injury (serum ALT) ([4]; 8 hours after administration, vs saline): approximately three-fold | Serum MIP-2 levels ([4]; 8 h post treatment): almost three times the levels seen in control animals | CXCR2 protein in liver (Western blot) ([4]; 26 h and subsequent time points): high level of CXCR2 protein | CXCR2 protein on hepatocytes (immunohistochemistry) ([4]; mouse, in vivo): quite strong expression of CXCR2 protein | Lowering of proliferation rate of liver cells exposed to PBS ([1]; 1 ng/ml, vs control cultures with PBS): 40% | Proliferation of liver cells exposed to acetaminophen for 24 h ([1]; treatment added immediately): not further reduced | Significant reduction of serum AST levels [2, 9]: not

HGF: human hepatocyte growth factor, used as positive control [reference compound]
Hepatocyte proliferation (incorporation of 3H-thymidine) (primary rat hepatocytes [5]): more significant | Proliferation of liver cells exposed to PBS [1]: did not change the proliferation | Liver injury (histology) [2]: Neither HGF nor 100 μg of NAC were effective | Significant reduction of serum AST levels [2, 9]: not

ENA-78: ELR-containing CXC chemokine, epithelial neutrophil activating protein-78; human recombinant protein
Proliferation of liver cells exposed to acetaminophen for 24 h ([1]; treatment added immediately): prevented the drop in liver cell proliferation | Proliferation of liver cells exposed to PBS [1]: did not change the proliferation | Liver injury (histology) [2]: marked attenuation of liver injury | Significant reduction of serum AST levels [2, 8]: significantly reduced serum AST levels | Reduction of serum AST levels [2, 9]: approximately 50%

IL-8: ELR-containing CXC chemokine, interleukin-8; human recombinant protein
Proliferation of liver cells exposed to PBS [1]: did not change the proliferation | Liver injury (histology) [2]: marked attenuation of liver injury | Significant reduction of serum AST levels [2, 8]: significantly reduced serum AST levels | Reduction of serum AST levels [2, 9]: approximately 50%

B1: MIP-2: ELR-containing CXC chemokine, macrophage inflammatory protein-2; recombinant murine protein (protein, UniProt P10889 28-100, looked up)
C-X-C motif chemokine 2: AVVASELRCQCLKTLPRVDFKNIQSLSVTPPGPHCAQTEVIATLKGGQKVCLDPEAPLVQKIIQKILNKGKAN
Affinity for murine CXCR2 relative to KC (murine CXCR2): ten-fold greater affinity | Hepatocyte proliferation (incorporation of 3H-thymidine) (primary rat hepatocytes [6]): significant increase in hepatocyte proliferation | Proliferation of liver cells exposed to acetaminophen for 24 h ([1]; treatment added immediately): prevented the drop in liver cell proliferation | Proliferation of liver cells exposed to PBS [1]: did not change the proliferation | Liver histology 2 days after injection ([7]; 1 ug i.v. 10 h after acetaminophen): little evidence of liver injury | Nuclear expression of C/EBP-α ([7]; 8 h after treatment): exhibited nuclear expression of the 48- and 42-kDa isoforms of C/EBP-α | Nuclear cyclin D1 protein ([7]; 24 h after treatment, Western blot): markedly greater nuclear levels of cyclin D1 protein | BrdU-labeled hepatocytes, enhancement above control group ([7]; 48 h after treatment): 10 fold | AST and ALT levels ([7]; IL-6 knockout): dramatic decrease of AST and ALT levels | Nuclear expression of 38- and 35-kDa LAP of C/EBP-β ([7]; Western blot of liver nuclear extracts): evident at 4 h after MIP-2 treatment | Nuclear expression of STAT-3 ([7]; vs PBS): strongly expressed at all times examined | IL-6 in serum or liver ([7]; vs controls): never significantly elevated | Liver injury (histology) [2]: marked attenuation of liver injury | Significant reduction of serum AST levels [2, 8]: significantly reduced serum AST levels | Reduction of serum AST levels [2, 9]: approximately 50% | Liver histology [3, 10]: showed improvements | Serum AST, MIP-2 vs NAC ([3]; 24 h fast, treatment delayed 10 h, 48 h): significantly lower levels of serum AST | Percent survival, treatment 10 h post Acetaminophen [3, 11]: 60%

B2: KC: murine ELR-CXC chemokine with neutrophil chemotactic properties (protein, UniProt P12850 25-96, looked up)
Growth-regulated alpha protein: APIANELRCQCLQTMAGIHLKNIQSLKVLPSGPHCTQTEVIATLKNGREACLDPEAPLVQKIVQKMLKGVPK
Affinity for CXCR2, fold less than MIP-2 (murine CXCR2): approximately 10 fold

B3: PF-4: CXC chemokine lacking the ELR sequence (protein, UniProt P02776 32-101, looked up)
Platelet factor 4: EAEEDGDLQCLCVKTTSQVRPRHITSLEVIKAGPHCPTAQLIATLKNGRKICLDLQAPLYKKIIKKLLES
Increase in neutrophil chemotactic properties (neutrophils): 1,000 fold
